# The C3SDB collision cross section collection
# Conditions: [M+H-H2O]+; instrument: TW; calibrated with polyalanine and drug standards
row,SMILES,collision cross section (N2)
1,CC(C)=CCC/C(C)=C/CC/C(C)=C/CC/C(C)=C/CC/C(C)=C/CC/C(C)=C/CC/C(C)=C/CC/C(C)=C/CC/C(C)=C/CO [SOLANESOL],256.8 Å²

# Same assay, conditions: [M+H]+; instrument: TW; calibrated with polyalanine and drug standards
row,SMILES,collision cross section (N2)
1,"COC(=O)[C@@H]1OC(=O)C2OC23[C@@]1(C)CCC1[C@]2(C)C(C[C@@H](O)[C@]13C)C(C)(C)[C@H](OC(C)=O)C[C@@H]2OC(C)=O (stereo not given in full) [DESACETYL (7)KHIVORINIC ACID, METHYL ESTER]",216.9 Å²
2,CC[C@@]1(O)C[C@H](O[C@H]2C[C@H](N(C)C)[C@H](O)[C@H](C)O2)c2c(cc3c(c2O)C(=O)c2c(O)ccc(O)c2C3=O)[C@H]1C(=O)OC [PYRROMYCIN],233.9 Å²
3,O=C(OCC(O)CO)c1ccccc1Nc1ccnc2cc(Cl)ccc12 (stereo not given) [GLAFENINE],187.3 Å²
4,CC(=O)OC1C(=O)C2(C)C(O)CC3OCC3(OC(C)=O)C2C(OC(=O)c2ccccc2)C2(O)CC(OC(=O)C(O)C(NC(=O)c3ccccc3)c3ccccc3)C(C)=C1C2(C)C (stereo not given) [PACLITAXEL],278.9 Å²
5,Oc1ccc(Cl)c2cccnc12 [CLOXYQUIN],129.5 Å²
6,COc1ccc(-c2cc(=O)c3c(O)c(OC)c(O[C@@H]4O[C@H](CO[C@@H]5O[C@@H](C)[C@H](O)[C@@H](O)[C@H]5O)[C@@H](O)[C@H](O)[C@H]4O)cc3o2)cc1 [PECTOLINARIN],236.5 Å²
7,CC(C)NCC(O)COc1cccc2[nH]ccc12 (stereo not given) [PINDOLOL],157.6 Å²
8,Cc1cnc(C(=O)NCCc2ccc(S(=O)(=O)NC(=O)NC3CCCCC3)cc2)cn1 [GLIPIZIDE],196.5 Å²
9,COC(=O)C[C@H]1C(C)(C)C(=O)[C@@H]2CC3=C4CC(=O)O[C@@H](c5ccoc5)[C@]4(C)CC[C@@H]3[C@@]1(C)C2=O [MEXICANOLIDE],203.9 Å²
10,CC(=O)O[C@@H]1C[C@H]2C(C)(C)C(=O)C=C[C@]2(C)[C@H]2CC[C@]3(C)C(=CC(=O)O[C@H]3c3ccoc3)[C@@]21C [DEOXYGEDUNIN],206.3 Å²
11,CCCCCC1C(=O)CCC1CC(=O)O (stereo not given) [DIHYDROJASMONIC ACID],147 Å²
12,"O=C(/C=C/c1ccccc1)c1ccc(O)cc1O [2',4'-DIHYDROXYCHALCONE]",153.5 Å²
13,O=c1c(-c2cc(O)c(O)c(O)c2)coc2cc(O)c(O)c(O)c12 [IRIGENOL],166.5 Å²
14,CN/C(=C\[N+](=O)[O-])NCCSCc1ccc(CN(C)C)o1 [RANITIDINE],167 Å²
15,CC(=O)O[C@H]1C[C@@H](OC(C)=O)C(C)(C)C2C[C@@H](OC(C)=O)[C@@]3(C)C4=CC(=O)O[C@@H](c5ccoc5)[C@]4(C)CCC3[C@]21C (stereo not given in full) [DEOXYKHIVORIN],224.9 Å²
16,Cc1ccccc1N1C(=O)c2cc(S(N)(=O)=O)c(Cl)cc2NC1C (stereo not given) [METOLAZONE],181.2 Å²
17,C=C1C2CC[C@@]3(C)[C@H](c4ccoc4)OC(=O)C[C@]13O[C@H]1CC(O)C(C)(C)C(CC(=O)OC)[C@@]21C (stereo partly drawn) [3alpha-HYDROXY-3-DEOXYANGOLENSIC ACID METHYL ESTER],204.6 Å²

row,SMILES,collision cross section (N2)
1,O=C1C=CC(=C(c2ccc(O)cc2)c2ccc(O)cc2)C=C1 [ROSOLIC ACID],169.1 Å²
2,COc1cc(C)c2c(=O)cc(-c3ccccc3)oc2c1 [METHOXYVONE],156.5 Å²
3,O=C1CCc2cc(OCCCCc3nnnn3C3CCCCC3)ccc2N1 [CILOSTAZOL],199.7 Å²
4,"CC1(C)C2CC(=O)[C@]3(C)C(CC[C@@]4(C)[C@H](c5ccoc5)OC(=O)[C@H]5O[C@]543)[C@@]2(C)C(=O)C[C@H]1O (stereo not given in full) [1,7-DIDEACETOXY-1,7-DIOXO-3-DEACETYLKHIVORIN]",199.7 Å²
5,CC(C)NCC(O)COc1cccc2ccccc12 (stereo not given) [PROPRANOLOL],161.5 Å²
6,C[C@@H]1CC[C@H]2[C@](C)(CO)[C@@H](O)CC[C@]2(C)[C@@]12CC[C@@](CO)(CCO)O2 [LAGOCHILIN],171.2 Å²
7,COc1cc2c(cc1O)C[C@H]1c3c(cc(O)c(OC)c3-2)CCN1C [BOLDINE],179.2 Å²
8,COc1ccc(C(CN(C)C)C2(O)CCCCC2)cc1 (stereo not given) [VENLAFAXINE],169.9 Å²
9,NC(=O)NC(=O)Cc1ccccc1 [PHENACEMIDE],128.3 Å²
10,C[C@@H]1C[C@H]2[C@@H]3C[C@H](F)C4=CC(=O)C=C[C@]4(C)[C@@]3(F)[C@@H](O)C[C@]2(C)[C@@]1(O)C(=O)CO [FLUMETHASONE],189.2 Å²
11,COc1cc(C(=O)NCCCCCC(=O)O)cc(OC)c1OC [CAPOBENIC ACID],176.9 Å²
12,CCCCOc1ccc(CC(=O)NO)cc1 [BUFEXAMAC],161 Å²
13,CCCCCCOc1ccccc1C(N)=O [EXALAMIDE],154.6 Å²
14,CCC(=O)O[C@]1(C(=O)CCl)[C@@H](C)C[C@H]2[C@@H]3CCC4=CC(=O)C=C[C@]4(C)[C@@]3(F)[C@@H](O)C[C@@]21C [CLOBETASOL PROPIONATE],205.1 Å²
15,COc1ccc(-c2coc3cc(O)ccc3c2=O)c(O)c1O [KOPARIN],162.1 Å²
16,OCCc1ccccc1 [PHENYLETHYL ALCOHOL],121.2 Å²
17,CC(=O)Nc1ccc(O)cc1 [ACETAMINOPHEN],129.7 Å²
